Reference: PubChem BioAssay (NCI)
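Interpolation was linear, between the two tested concentrations surrounding the appropriate level; five concentrations were tested over 48 hours in 96-well plates. GI50: concentration for 50% inhibition of growth. The concentration for full growth arrest is given as TGI.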

Columns and labels:
Test in all cases: NCI-60 cell line screen, 48 h
CCRF-CEM leukemia = test system: CCRF-CEM leukemia
COLO 205 colon = test system: COLO 205 colon
IGROV1 ovarian = test system: IGROV1 ovarian
KM12 colon = test system: KM12 colon
MDA-MB-231 breast = test system: MDA-MB-231 breast
MDA-MB-435 = test system: MDA-MB-435
NCI/ADR-RES ovarian = test system: NCI/ADR-RES ovarian
OVCAR-3 ovarian = test system: OVCAR-3 ovarian
T-47D breast = test system: T-47D breast
UACC-257 melanoma = test system: UACC-257 melanoma
RXF 393 renal = test system: RXF 393 renal

Structure (SMILES) | TGI (CCRF-CEM leukemia) | TGI (COLO 205 colon) | TGI (IGROV1 ovarian) | TGI (KM12 colon) | TGI (MDA-MB-231 breast) | TGI (MDA-MB-435) | TGI (NCI/ADR-RES ovarian) | TGI (OVCAR-3 ovarian) | TGI (T-47D breast) | TGI (UACC-257 melanoma) | TGI (RXF 393 renal) | GI50 (CCRF-CEM leukemia) | GI50 (COLO 205 colon) | GI50 (IGROV1 ovarian) | GI50 (MDA-MB-231 breast) | GI50 (MDA-MB-435) | GI50 (OVCAR-3 ovarian) | GI50 (RXF 393 renal) | GI50 (T-47D breast)
Nn1c(-c2ccccc2)n[nH]c1=O | > 100 µM | > 100 µM | > 100 µM | > 100 µM | > 100 µM | > 100 µM | > 100 µM | > 100 µM | > 100 µM | > 100 µM | – | – | – | – | – | – | – | – | –
Nc1ncnc2c1[nH]c(=O)n2-c1ccccc1 | – | > 100 µM | > 100 µM | – | – | > 100 µM | > 100 µM | > 100 µM | – | > 100 µM | – | – | – | – | – | – | – | – | –
O=C(OCc1ccccc1)N1CCNCCN(C(=O)OCc2ccccc2)CCNCC1 | > 100 µM | – | > 100 µM | 66.1 µM | – | 64.6 µM | > 100 µM | > 100 µM | 32.7 µM | 46.3 µM | > 100 µM | – | – | – | – | – | – | – | –
O=C(N/N=C/c1ccc(Cl)cc1)c1c(Cl)c(Cl)c(Cl)c(Cl)c1-c1nc2ccccc2[nH]1 | > 100 µM | > 100 µM | > 100 µM | > 100 µM | – | > 100 µM | > 100 µM | > 100 µM | 47.5 µM | – | > 100 µM | – | – | – | – | – | – | – | –
CCN(CC)C(=S)N/N=C/c1cc([N+](=O)[O-])ccc1O | 8.06 µM | 18.1 µM | 16.7 µM | > 100 µM | 30.4 µM | 76.9 µM | 13.9 µM | 13.3 µM | 39.4 µM | 32.2 µM | 51.3 µM | – | – | – | – | – | – | – | –
O=S(=O)(c1ccccc1)c1cccc2c1NCCC2 | > 100 µM | > 10 µM | > 100 µM | > 100 µM | > 100 µM | > 100 µM | > 100 µM | > 100 µM | – | 76.9 µM | 90.1 µM | – | – | – | – | – | – | – | –
Cc1cccc(Cn2c3c(c4cc(O)ccc42)C(=O)c2ccccc2C3=O)c1 | > 100 µM | > 100 µM | > 71 µM | > 100 µM | > 70.8 µM | > 100 µM | > 67.8 µM | > 31.6 µM | > 100 µM | > 100 µM | 21.2 µM | – | – | – | – | – | – | – | –
COP(=O)(OC)C1=c2c(C)noc2=C2C=COC2C1=O (stereo unspecified) | > 100 µM | > 100 µM | > 100 µM | > 100 µM | > 100 µM | > 100 µM | > 100 µM | > 100 µM | – | > 100 µM | > 100 µM | – | – | – | – | – | – | – | –
O=C(NCc1ccccc1)c1n[nH][nH]c1=O | > 100 µM | > 100 µM | > 100 µM | > 100 µM | > 100 µM | > 100 µM | > 100 µM | > 100 µM | > 100 µM | > 100 µM | > 100 µM | – | – | – | – | – | – | – | –
COC(=O)c1c(C)nc2c1cc(O)c1[nH]c(C)c(C)nc12 | > 100 µM | > 100 µM | > 100 µM | > 100 µM | – | > 100 µM | > 100 µM | > 100 µM | > 100 µM | > 100 µM | > 100 µM | – | – | – | – | – | – | – | –
CCOC(=O)Nc1sc2c(c1C#N)CCCC2 | > 100 µM | > 100 µM | > 100 µM | > 100 µM | > 100 µM | > 100 µM | – | > 100 µM | – | > 100 µM | > 100 µM | – | – | – | – | – | – | – | –
O=C1c2cc3c(cc2-c2c1c1ccc(F)cc1c(=O)n2C[C@H](O)[C@@H](O)[C@H](O)CO)OCO3 | 2.18 µM | 0.546 µM | > 100 µM | – | 0.984 µM | 0.279 µM | – | 0.476 µM | 0.15 µM | – | 0.432 µM | 0.0344 µM | 0.106 µM | 0.302 µM | 0.325 µM | 0.112 µM | 0.0989 µM | 0.162 µM | 0.0229 µM
O=C1CCCCC1CN1CCCCC1 (stereo unspecified) | > 100 µM | > 100 µM | > 100 µM | > 100 µM | > 100 µM | > 100 µM | > 100 µM | > 100 µM | – | – | > 100 µM | – | – | – | – | – | – | – | –
CC1(C(=O)O)CCC2(C)CCC3(C)C(=CC(=O)C4C5(C)CCC(O)C(C)(C)C5CCC43C)C2C1 (stereo unspecified) | 95.9 µM | > 100 µM | – | 37.3 µM | – | > 100 µM | > 100 µM | 37.4 µM | 99.1 µM | > 100 µM | 83 µM | – | – | – | – | – | – | – | –
COc1cc(S(=O)(=O)Nc2nc(-c3ccc(N4C(=O)C(CC(=O)O)SC4c4cccs4)cc3)cs2)ccc1Cl (stereo unspecified) | – | > 100 µM | 66 µM | > 100 µM | > 100 µM | > 100 µM | 76.6 µM | > 100 µM | 91.9 µM | > 100 µM | 32.5 µM | – | – | – | – | – | – | – | –
CCC(=O)NC(Nc1cc(C)on1)(C(F)(F)F)C(F)(F)F | > 100 µM | – | > 100 µM | > 100 µM | > 100 µM | > 100 µM | > 100 µM | > 100 µM | > 100 µM | > 100 µM | > 100 µM | – | – | – | – | – | – | – | –
COc1ccc2cc1Oc1ccc(cc1)C[C@H]1c3cc(c(OC)cc3CCN1C)Oc1c(O)c(OC)cc3c1[C@H](C2)N(C)CC3 | 83.8 µM | 39.4 µM | 65.8 µM | 42.6 µM | – | – | 77.1 µM | 46.8 µM | – | 30.1 µM | 45 µM | – | – | – | – | – | – | – | –
Oc1ccc2c(c1)c1c(n2CCN2CCOCC2)-c2ccccc2CC1 | > 100 µM | – | 57.6 µM | 35.8 µM | 80 µM | – | 74.2 µM | 49.5 µM | – | > 100 µM | 75.7 µM | – | – | – | – | – | – | – | –
CC1=C(Cl)C=CP(=O)(Oc2ccccc2)C1 (stereo unspecified) | > 10 µM | > 100 µM | > 100 µM | > 100 µM | – | – | – | > 100 µM | – | > 100 µM | – | – | – | – | – | – | – | – | –
CCC(=O)NCC1CCCN2CCCCC12 (stereo unspecified) | > 100 µM | > 100 µM | – | > 100 µM | > 100 µM | > 100 µM | > 100 µM | – | > 100 µM | > 100 µM | > 100 µM | – | – | – | – | – | – | – | –
COc1ccc(-c2[nH]c3c4c(nc5c(c24)C(=O)CC(C)(C)C5)CC(C)(C)C3)cc1 | > 100 µM | > 100 µM | – | > 100 µM | > 100 µM | > 100 µM | > 100 µM | > 100 µM | > 100 µM | > 100 µM | > 100 µM | – | – | – | – | – | – | – | –
